According to the NIST ThermoML archive (doi:10.1016/j.jct.2011.12.015):

Key:
[1] = molar heat capacity at constant pressure; conditions: 101.33 kPa, Small sample (50 mg) DSC
[2] = Crystal; DTA
[3] = Molar enthalpy of transition or fusion; conditions: Crystal; DSC

CCCCOC(=O)c1ccc(O)cc1 [butyl 4-hydroxybenzoate]
[1]
Conditions | molar heat capacity at constant pressure [J/K/mol]
291.02 K, Crystal | 264.15
293.6 K, Crystal | 266.09
296.12 K, Crystal | 268.23
298.7 K, Crystal | 270.36
301.32 K, Crystal | 272.5
303.91 K, Crystal | 274.64
306.52 K, Crystal | 276.58
309.1 K, Crystal | 278.72
311.71 K, Crystal | 281.05
314.32 K, Crystal | 283.18
316.9 K, Crystal | 285.32
319.51 K, Crystal | 287.65
322.12 K, Crystal | 289.79
324.73 K, Crystal | 292.31
328.33 K, Crystal | 296.2
329.85 K, Crystal | 298.33
330.99 K, Crystal | 299.89
353.41 K, Liquid | 386.9
355.11 K, Liquid | 388.45
356.8 K, Liquid | 389.04
358.41 K, Liquid | 389.81
360.1 K, Liquid | 390.4
361.82 K, Liquid | 391.17
363.51 K, Liquid | 391.76
365.21 K, Liquid | 392.53
366.81 K, Liquid | 392.92
368.41 K, Liquid | 393.7
370.1 K, Liquid | 394.09
371.82 K, Liquid | 394.67
373.51 K, Liquid | 395.25
375.2 K, Liquid | 395.83
376.92 K, Liquid | 396.42
378.61 K, Liquid | 397
379.87 K, Liquid | 397.39

Conditions | Molar enthalpy of transition or fusion [kcal/mol] | Normal melting temperature [°C]
[2] | – | 67.34
[3] | 6.1 | –

O=C(O)c1ccccc1 [benzoic acid]
[1]
Conditions | molar heat capacity at constant pressure [J/K/mol]
281.06 K, Crystal | 137.39
287.01 K, Crystal | 140.07
293.02 K, Crystal | 142.88
299 K, Crystal | 145.2
305.01 K, Crystal | 147.4
311.02 K, Crystal | 149.72
317 K, Crystal | 152.16
323.03 K, Crystal | 154.48
329.02 K, Crystal | 156.93
335.02 K, Crystal | 159.49
341.01 K, Crystal | 161.93
347.02 K, Crystal | 164.38
353 K, Crystal | 166.7
359.01 K, Crystal | 168.89
365.01 K, Crystal | 171.21
369.32 K, Crystal | 172.8
407.4 K, Liquid | 230.44
409 K, Liquid | 231.42
410.6 K, Liquid | 232.15
413.2 K, Liquid | 233.01
414.8 K, Liquid | 233.5
416.5 K, Liquid | 233.74
418 K, Liquid | 233.98
419.6 K, Liquid | 234.35
421.2 K, Liquid | 234.72
422.8 K, Liquid | 235.08
424.4 K, Liquid | 235.45
426 K, Liquid | 235.82
427.6 K, Liquid | 236.06
429.2 K, Liquid | 236.43
430.8 K, Liquid | 236.79
432 K, Liquid | 237.16

Conditions | Molar enthalpy of transition or fusion [kcal/mol] | Normal melting temperature [°C]
[2] | – | 121.80
[3] | 4.02 | –
